Data: article PMC8338929, “Acetylation turns leucine into a drug by membrane transporter switching” (Scientific Reports, 2021)

How the values were obtained:
[1] = N-acetyl-leucine metabolism in pooled human liver S9 fraction (LC-MS); assay type: in vitro ADME; conditions: 1 µM initial concentration, 0-60 min
Description: (§2) V0 = Vmax. [S]/Km + [S], where V0 is initial velocity, [S] is substrate concentration, Vmax is maximum velocity and Km is substrate concentration at half Vmax. All fitting was performed using GraphPad Prism 8.4 software (GraphPad Software Inc). No weighting scheme was applied.

[2] = N-acetyl-leucine metabolism in pooled mouse liver S9 fraction (LC-MS); assay type: in vitro ADME; conditions: 1 µM initial concentration, 0-60 min
Description: as §2

[3] = system: LAT1; conditions: read-out: Km LAT1; quoted in discussion, no reference given; cited from earlier work
[4] = target: T1, human MCT1 (SLC16A1) (Homo sapiens, UniProt P53985); assay: Inhibition of MCT1 uptake of probe substrate 2-thiophene glyoxylate in MDCK-II cells; assay type: cell-based
T1 construct: host or cells: MDCK-II
T1 sequence (P53985 1-500): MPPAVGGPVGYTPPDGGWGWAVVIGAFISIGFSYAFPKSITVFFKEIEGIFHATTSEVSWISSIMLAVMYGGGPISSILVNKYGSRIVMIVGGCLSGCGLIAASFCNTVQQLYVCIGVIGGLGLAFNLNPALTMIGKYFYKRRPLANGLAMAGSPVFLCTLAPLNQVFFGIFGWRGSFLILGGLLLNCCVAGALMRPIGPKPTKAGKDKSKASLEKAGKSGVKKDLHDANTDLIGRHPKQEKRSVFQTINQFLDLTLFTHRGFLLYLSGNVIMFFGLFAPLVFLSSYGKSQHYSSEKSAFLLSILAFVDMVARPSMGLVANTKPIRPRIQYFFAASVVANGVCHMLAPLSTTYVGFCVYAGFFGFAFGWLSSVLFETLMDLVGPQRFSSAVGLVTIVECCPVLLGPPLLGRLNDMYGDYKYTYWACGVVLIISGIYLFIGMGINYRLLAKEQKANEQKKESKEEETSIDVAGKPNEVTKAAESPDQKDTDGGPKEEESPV
Description: (§1) Transport studies with human PepT1 (SLC15A1), LAT1 (SLC7A5) and MCT1 (SLC16A1) were conducted in MDCK-II cells expressing the human transporter or control cells expressing a vector with Green Fluorescence Protein. Cells were transfected using a proprietary, transient transfection system (OPTI-EXPRESSION Technology, BioIVT). The results from the control cells were used to correct for substrate permeation by routes other than the transporter being investigated in the study. […] Specifically, Net Transporter Mediated Substrate Uptake (pmol/min/cm^2) = (Cellular accumulation in the presence of the transporter) − (Mean cellular accumulation in the absence of the transporter). MDCK-II cells were maintained in DMEM with low glucose and 10% FBS. Cells were used at passages up to 40 were seeded at 60,000 ± 10,000 cells/well on 96-well plates approximately 24 h before transfection, and transport assays were performed approximately 48 h after transfection. Transport studies in MDCK-II cells were conducted in 96-well insert plates with permeable membrane (0.4 µm) and receiver tray (Millipore MultiScreen Filter 96-well).
Transport studies with PepT1 were conducted in 96-well cell culture plate with wells containing a monolayer of MDCK-II cells grown on a permeable support and a corresponding 96-well receiver tray. Cell plates are maintained at 37 °C in 5% CO2 atmosphere prior to initiation of the transport experiment. Pre-incubation was conducted in HBSS, pH 7.4. The transport experiments were conducted in HBSS with Bis–Tris, pH 5.5, without phenol red. Both pre-incubation and incubation were conducted at 37 °C. All final assay solutions of probe substrate, reference inhibitor or test article contain 0.5% (v/v) DMSO (vehicle control). The culture plate insert […] was washed with warm HBSS three times and then blotted dry. The culture plate wells […] were washed with warm HBSS three times. 100 µL of 37 °C HBSS pH 7.4 pre-incubation buffer to the apical compartment as follows: for the probe substrate transport assay, the HBSS contains vehicle; for the reference inhibition assay, the HBSS contains the reference inhibitor at the required concentration; for the test article assays, the HBSS in each well contains test compound at the specified concentration. The plates were incubated at 37 °C with orbital shaking at approximately 60 rpm for the pre-incubation (30 min), aspirated and then 100 µL of the experimental buffer was added. […] Then a 30-µL sample was taken and mixed with 200 µL of scintillation fluid and scintillation counted (1450 Microbeta, Perkin-Elmer). […]

[5] = target: T1, human MCT1 (SLC16A1); assay: MCT1-mediated cellular uptake in transfected MDCK-II cells; assay type: cell-based; conditions: 1 min, room temperature, Michaelis-Menten fit
Description: as §1
Transport studies with PepT1 were conducted in 96-well cell culture plate with wells containing a monolayer of MDCK-II cells grown on a permeable support and a corresponding 96-well receiver tray. Cell plates are maintained at 37 °C in 5% CO2 atmosphere prior to initiation of the transport experiment. Pre-incubation was conducted in HBSS, pH 7.4. The transport experiments were conducted in HBSS with Bis–Tris, pH 5.5, without phenol red. Both pre-incubation and incubation were conducted at 37 °C. All final assay solutions of probe substrate, reference inhibitor or test article contain 0.5% (v/v) DMSO (vehicle control). The culture plate insert […] was washed with warm HBSS three times and then blotted dry. The culture plate wells […] were washed with warm HBSS three times. […] Then a 30-µL sample was taken and mixed with 200 µL of scintillation fluid and scintillation counted (1450 Microbeta, Perkin-Elmer). […]

[6] = substrate: CC(=O)N[C@@H](CC(C)C)C(=O)O; assay: cells, lysate or membranes; conditions: Michaelis-Menten fit

[2H]C([2H])([2H])C([2H])(C([2H])([2H])[2H])C([2H])([2H])C([2H])(NC(C)=O)C(=O)O (racemic) [N-acetyl-DL-[^2H10]leucine]
disappearance: asymptote as % of the initial concentration, human liver S9 [1]: ~50% | disappearance: asymptote as % of the initial concentration, mouse liver S9 [2]: ~50%

CC(C)C[C@H](N)C(=O)O [L-leucine]
Km [3]: 200 µM

CC(=O)N[C@H](CC(C)C)C(=O)O [N-acetyl-D-leucine]
Ki ([4]; Cheng-Prusoff equation from IC50, competitive inhibition assumed, read-out: affinity (Ki) MCT1): 1.6 mM | IC50 ([4]; probe 2-thiophene glyoxylate 500 µM, positive control phloretin 500 µM): 11 mM | Km [5]: 1000 µM | Vmax MCT1 uptake [5]: 80

B1: Human OAT1 (SLC22A6) (Homo sapiens) (protein)
chain: MAFNDLLQQVGGVGRFQQIQVTLVVLPLLLMASHNTLQNFTAAIPTHHCRPPADANLSKNGGLEVWLPRDRQGQPESCLRFTSPQWGLPFLNGTEANGTGATEPCTDGWIYDNSTFPSTIVTEWDLVCSHRALRQLAQSLYMVGVLLGAMVFGYLADRLGRRKVLILNYLQTAVSGTCAAFAPNFPIYCAFRLLSGMALAGISLNCMTLNVEWMPIHTRACVGTLIGYVYSLGQFLLAGVAYAVPHWRHLQLLVSAPFFAFFIYSWFFIESARWHSSSGRLDLTLRALQRVARINGKREEGAKLSMEVLRASLQKELTMGKGQASAMELLRCPTLRHLFLCLSMLWFATSFAYYGLVMDLQGFGVSIYLIQVIFGAVDLPAKLVGFLVINSLGRRPAQMAALLLAGICILLNGVIPQDQSIVRTSLAVLGKGCLAASFNCIFLYTGELYPTMIRQTGMGMGSTMARVGSIVSPLVSMTAELYPSMPLFIYGAVPVAASAVTVLLPETLGQPLPDTVQDLESRWAPTQKEAGIYPRKGKQTRQQQEHQKYMVPLQASAQEKNGL
Km ([6]; other: HEK-293 cells, pH 7.4): 11000 µM

B2: Human OAT3 (SLC22A8) (Homo sapiens) (protein)
chain: MTFSEILDRVGSMGHFQFLHVAILGLPILNMANHNLLQIFTAATPVHHCRPPHNASTGPWVLPMGPNGKPERCLRFVHPPNASLPNDTQRAMEPCLDGWVYNSTKDSIVTEWDLVCNSNKLKEMAQSIFMAGILIGGLVLGDLSDRFGRRPILTCSYLLLAASGSGAAFSPTFPIYMVFRFLCGFGISGITLSTVILNVEWVPTRMRAIMSTALGYCYTFGQFILPGLAYAIPQWRWLQLTVSIPFFVFFLSSWWTPESIRWLVLSGKSSKALKILRRVAVFNGKKEEGERLSLEELKLNLQKEISLAKAKYTASDLFRIPMLRRMTFCLSLAWFATGFAYYSLAMGVEEFGVNLYILQIIFGGVDVPAKFITILSLSYLGRHTTQAAALLLAGGAILALTFVPLDLQTVRTVLAVFGKGCLSSSFSCLFLYTSELYPTVIRQTGMGVSNLWTRVGSMVSPLVKITGEVQPFIPNIIYGITALLGGSAALFLPETLNQPLPETIEDLENWSLRAKKPKQEPEVEKASQRIPLQPHGPGLGSS
Km ([6]; other: HEK-293 cells, pH 7.4): 7800 µM

B3: human MCT1 (SLC16A1) (Homo sapiens) (protein)
chain: T1 sequence (P53985 1-500)
Km ([6]; other: MDCK-II cells, 1 min, room temperature): 3000 µM
